Laboratory results as given in patent US9695155B2, “Herbicidal substituted pyrimidinyloxy benzene compounds” (E. I. DU PONT DE NEMOURS AND COMPANY, priority 2013, dated 2017).

Legend:
bromegrass, downy [1] = assay: Test C preemergence; format: in vivo, Bromus tectorum; details: for Bromegrass, Downy plant response rating: preemergence, scale 0 (no effect) to 100 (complete control); for Plant response rating, Bromegrass, Downy: Preemergence, 31 g ai/ha, scale 0 to 100, 0 no effect, 100 complete control
Excerpt: (§1) Seeds of plant species selected from blackgrass (Alopecurus myosuroides), Italian ryegrass (Lolium multiflorum), wheat, winter (winter wheat, Triticum aestivum), galium (catchweed bedstraw, Galium aparine), corn (Zea mays), large (Lg) crabgrass (Digitaria sanguinalis), giant foxtail (Setaria faberii), johnsongrass (Sorghum halepense), lambsquarters (Chenopodium album), morningglory (Ipomoea coccinea), yellow nutsedge (Cyperus esculentus), pigweed (Amaranthus retroflexus), ragweed (common ragweed, Ambrosia elatior), soybean (Glycine max), barnyardgrass (Echinochloa crus-galli), oilseed rape (Brassica napus), waterhemp (common waterhemp, Amaranthus rudis), kochia (Kochia scoparia), wild oat (Avena fatua), surinam grass (Brachiaria decumbens), foxtail, green (green foxtail, Setaria viridis), goosegrass (Eleusine indica), bromegrass, downy (downy bromegrass, Bromus tectorum), nightshade (eastern black nightshade, Solanum ptycanthum), cocklebur (common cocklebur, Xanthium strumarium), cupgrass, woolly (woolly cupgrass, Eriochloa villosa), bermudagrass (Cynodon dactylon), sunflower, (common oilseed sunflower, Helianthus annuus), Russian thistle (Salsola kali), and velvetleaf (Abutilon theophrasti) were planted into a blend of loam soil and sand and treated preemergence with test chemicals formulated in a non-phytotoxic solvent mixture which included a surfactant.
(§2) At the same time, plants selected from these crop and weed species and also barley, winter (winter barley, Hordeum vulgare), windgrass (Apera spica-venti), chickweed (common chickweed, Stellaria media), deadnettle (henbit deadnettle, Lamium amplexicaule), and canarygrass (littleseed canarygrass, Phalaris minor) were planted in pots containing Redi-Earth® planting medium (Scotts Company, 14111 Scottslawn Road, Marysville, Ohio 43041) comprising spaghnum peat moss, vermiculite, wetting agent and starter nutrients and treated with postemergence applications of test chemicals formulated in the same manner. Plants ranged in height from 2 to 18 cm (1- to 4-leaf stage) for postemergence treatments. Treated plants and controls were maintained in a greenhouse for 13 to 15 days, after which time all species were compared to controls and visually evaluated. Plant response ratings, summarized in Table C, are based on a scale of 0 to 100 where 0 is no effect and 100 is complete control. A dash (-) response means no test result.

barley, winter = assay: Test C postemergence; format: in vivo, Hordeum vulgare; details: for Plant response rating (0 to 100), Barley: postemergence; for Plant response rating, Barley: Postemergence, scale 0 to 100 (0 no effect, 100 complete control)
Excerpt: as §1, §2

smartweed = assay: Test E postemergence; format: in vivo, ladysthumb smartweed
Excerpt: Seeds of plant species selected from corn (Zea mays), soybean (Glycine max), velvetleaf (Abutilon theophrasti), lambsquarters (Chenopodium album), wild poinsettia (Euphorbia heterophylla), palmer pigweed (Amaranthus palmeri), waterhemp (common waterhemp, Amaranthus rudis), surinam grass (Brachiaria decumbens), large (Lg) crabgrass (Digitaria sanguinalis), Brazilian crabgrass (Digitaria horizontalis), fall panicum (Panicum dichotomiflorum), giant foxtail (Setaria faberii), green foxtail (Setaria viridis), goosegrass (Eleusine indica), johnsongrass (Sorghum halepense), ragweed (common ragweed, Ambrosia elatior), barnyardgrass (Echinochloa crus-galli), sandbur (southern sandbur, Cenchrus echinatus), arrowleaf sida (Sida rhombifolia), Italian ryegrass (Lolium multiflorum), dayflower (Virginia (VA) dayflower, Commelina virginica), field bindweed (Convolvulus arvensis), morningglory (Ipomoea coccinea), nightshade (eastern black nightshade, Solanum ptycanthum), kochia (Kochia scoparia), yellow nutsedge (Cyperus esculentus), cocklebur (common cocklebur, Xanthium strumarium), smartweed (ladysthumb smartweed, and hairy beggarticks (Bidens pilosa), were planted into a silt loam soil and treated preemergence with test chemicals formulated in a non-phytotoxic solvent mixture which included a surfactant.
At the same time, plants from these crop and weed species and also horseweed (Canada horseweed, Conyza canadensis), waterhemp_RES1, (ALS & Triazine resistant common waterhemp, Amaranthus rudis), and waterhemp_RES2, (ALS & HPPD resistant common waterhemp, Amaranthus rudis) were planted in pots containing Redi-Earth® planting medium (Scotts Company, 14111 Scottslawn Road, Marysville, Ohio 43041) comprising spaghnum peat moss, vermiculite, wetting agent and starter nutrients were treated with postemergence applications of test chemicals formulated in the same manner. Plants ranged in height from 2 to 18 cm for postemergence treatments (1- to 4-leaf stage). Treated plants and controls were maintained in a greenhouse for 14 to 21 days, after which time all species were compared to controls and visually evaluated. Plant response ratings, summarized in Table E, are based on a scale of 0 to 100 where 0 is no effect and 100 is complete control. A dash (-) response means no test result.

bermudagrass [2] = assay: Test C preemergence; format: in vivo, Cynodon dactylon; details: for Bermudagrass plant response rating: preemergence, scale 0 (no effect) to 100 (complete control); for Plant response rating, Bermudagrass: Preemergence, 31 g ai/ha, scale 0 to 100, 0 no effect, 100 complete control
Excerpt: as §1, §2

bromegrass, downy [3] = assay: Test C postemergence; format: in vivo, Bromus tectorum; details: for Plant response rating (0 to 100), Bromegrass, Downy: postemergence; for Plant response rating, Bromegrass, Downy: Postemergence, scale 0 to 100 (0 no effect, 100 complete control)
Excerpt: as §1, §2

bermudagrass [4] = assay: Test C postemergence; format: in vivo, Cynodon dactylon; details: for Plant response rating (0 to 100), Bermudagrass: postemergence; for Plant response rating, Bermudagrass: Postemergence, scale 0 to 100 (0 no effect, 100 complete control)
Excerpt: as §1, §2

nightshade = assay: Test C preemergence; format: in vivo, Solanum ptycanthum; details: for Nightshade plant response rating: preemergence, scale 0 (no effect) to 100 (complete control)
Excerpt: as §1, §2

goosegrass = assay: Test C preemergence; format: in vivo, Eleusine indica; details: for Goosegrass plant response rating: preemergence, scale 0 (no effect) to 100 (complete control); for Plant response rating, Goosegrass: Preemergence, 31 g ai/ha, scale 0 to 100, 0 no effect, 100 complete control
Excerpt: as §1, §2

Russian thistle = assay: Test C preemergence; format: in vivo, Salsola kali; details: for Russian Thistle plant response rating: preemergence, scale 0 (no effect) to 100 (complete control)
Excerpt: as §1, §2

[5] = Postemergence, 31 g ai/ha, scale 0 to 100
[6] = Postemergence, 62 g ai/ha, scale 0 to 100
[7] = Postemergence, 125 g ai/ha, scale 0 to 100
[8] = postemergence, 16 g ai/ha, scale 0 to 100, 0 no effect, 100 complete control
[9] = Preemergence, 31 g ai/ha, scale 0 to 100, 0 no effect, 100 complete control
[10] = Postemergence, 250 g ai/ha, scale 0 to 100

## Clc1cnc(Oc2ccccc2-n2cc(Br)cn2)nc1 [Compound 7, 2-[2-(4-bromo-1H-pyrazol-1-yl)phenoxy]-5-chloropyrimidine]
bromegrass, downy [1]; 62 g ai/ha
  Bromegrass, Downy plant response rating: 5
bromegrass, downy [1]; 125 g ai/ha
  Bromegrass, Downy plant response rating: 45
bromegrass, downy [1]; 250 g ai/ha
  Bromegrass, Downy plant response rating: 75
bromegrass, downy [1]
  Plant response rating, Bromegrass, Downy: 0
barley, winter; 125 g ai/ha
  Plant response rating (0 to 100), Barley: 10
barley, winter; 250 g ai/ha
  Plant response rating (0 to 100), Barley: 15
barley, winter; 31 g ai/ha, 13 to 15 days
  Plant response rating, Barley: 0
barley, winter; 62 g ai/ha
  Plant response rating, Barley: 0
smartweed; [5]
  Plant response rating, Smartweed: 40
smartweed; [6]
  Plant response rating, Smartweed: 70
smartweed; [7]
  Plant response rating, Smartweed: 100
smartweed; postemergence, 8 g ai/ha, scale 0 to 100, 0 no effect, 100 complete control
  Plant response rating, Smartweed: 15
smartweed; [8]
  Plant response rating, Smartweed: 30
Bermudagrass [2]; 62 g ai/ha
  Bermudagrass plant response rating: 100
Bermudagrass [2]; 125 g ai/ha
  Bermudagrass plant response rating: 100
Bermudagrass [2]; 250 g ai/ha
  Bermudagrass plant response rating: 100
Bermudagrass [2]
  Plant response rating, Bermudagrass: 85
bromegrass, downy [3]; 125 g ai/ha
  Plant response rating (0 to 100), Bromegrass, Downy: 10
bromegrass, downy [3]; 250 g ai/ha
  Plant response rating (0 to 100), Bromegrass, Downy: 10
bromegrass, downy [3]; 31 g ai/ha, 13 to 15 days
  Plant response rating, Bromegrass, Downy: 5
bromegrass, downy [3]; 62 g ai/ha
  Plant response rating, Bromegrass, Downy: 5
Bermudagrass [4]; 125 g ai/ha
  Plant response rating (0 to 100), Bermudagrass: 15
Bermudagrass [4]; 250 g ai/ha
  Plant response rating (0 to 100), Bermudagrass: 70
Bermudagrass [4]; 31 g ai/ha, 13 to 15 days
  Plant response rating, Bermudagrass: 0
Bermudagrass [4]; 62 g ai/ha
  Plant response rating, Bermudagrass: 5
nightshade; 62 g ai/ha
  Nightshade plant response rating: 95
nightshade; 125 g ai/ha
  Nightshade plant response rating: 95
nightshade; 250 g ai/ha
  Nightshade plant response rating: 98
nightshade; [9]
  Plant response rating, Nightshade: 80
goosegrass; 62 g ai/ha
  Goosegrass plant response rating: 85
goosegrass; 125 g ai/ha
  Goosegrass plant response rating: 95
goosegrass; 250 g ai/ha
  Goosegrass plant response rating: 100
goosegrass
  Plant response rating, Goosegrass: 65

## Fc1cnc(Oc2ccccc2-n2cc(Br)cn2)nc1 [Compound 10, 2-[2-(4-bromo-1H-pyrazol-1-yl)phenoxy]-5-fluoropyrimidine]
barley, winter; 125 g ai/ha
  Plant response rating (0 to 100), Barley: 5
barley, winter; 250 g ai/ha
  Plant response rating (0 to 100), Barley: 10
barley, winter; 31 g ai/ha, 13 to 15 days
  Plant response rating, Barley: 0
barley, winter; 62 g ai/ha
  Plant response rating, Barley: 5
bromegrass, downy [3]; 125 g ai/ha
  Plant response rating (0 to 100), Bromegrass, Downy: 10
bromegrass, downy [3]; 250 g ai/ha
  Plant response rating (0 to 100), Bromegrass, Downy: 15
bromegrass, downy [3]; 31 g ai/ha, 13 to 15 days
  Plant response rating, Bromegrass, Downy: 5
bromegrass, downy [3]; 62 g ai/ha
  Plant response rating, Bromegrass, Downy: 5
Bermudagrass [4]; 125 g ai/ha
  Plant response rating (0 to 100), Bermudagrass: 5
Bermudagrass [4]; 250 g ai/ha
  Plant response rating (0 to 100), Bermudagrass: 50
Bermudagrass [4]; 31 g ai/ha, 13 to 15 days
  Plant response rating, Bermudagrass: 0
Bermudagrass [4]; 62 g ai/ha
  Plant response rating, Bermudagrass: 5

## FC(F)(F)c1cnn(-c2ccccc2Oc2ncc(Br)cn2)c1 [Compound 18, 5-bromo-2-[2-[4-(trifluoromethyl)-1H-pyrazol-1-yl]phenoxy]pyrimidine]
Russian thistle; 62 g ai/ha
  Russian Thistle plant response rating: 0
Russian thistle; 125 g ai/ha
  Russian Thistle plant response rating: 95
Russian thistle; 250 g ai/ha
  Russian Thistle plant response rating: 95
Russian thistle; [9]
  Plant response rating, Russian Thistle: 0
bromegrass, downy [1]; 62 g ai/ha
  Bromegrass, Downy plant response rating: 10
bromegrass, downy [1]; 125 g ai/ha
  Bromegrass, Downy plant response rating: 50
bromegrass, downy [1]; 250 g ai/ha
  Bromegrass, Downy plant response rating: 95
bromegrass, downy [1]
  Plant response rating, Bromegrass, Downy: 0
Bermudagrass [2]; 62 g ai/ha
  Bermudagrass plant response rating: 98
Bermudagrass [2]; 125 g ai/ha
  Bermudagrass plant response rating: 98
Bermudagrass [2]; 250 g ai/ha
  Bermudagrass plant response rating: 100
Bermudagrass [2]
  Plant response rating, Bermudagrass: 95
nightshade; 62 g ai/ha
  Nightshade plant response rating: 30
nightshade; 125 g ai/ha
  Nightshade plant response rating: 80
nightshade; 250 g ai/ha
  Nightshade plant response rating: 95
goosegrass; 62 g ai/ha
  Goosegrass plant response rating: 85
goosegrass; 125 g ai/ha
  Goosegrass plant response rating: 95
goosegrass; 250 g ai/ha
  Goosegrass plant response rating: 100
goosegrass
  Plant response rating, Goosegrass: 75

## N#Cc1cccc(Oc2ncc(Cl)cn2)c1-n1cc(C(F)(F)F)cn1 [Compound 58, 3-[(5-chloro-2-pyrimidinyl)oxy]-2-[4-(trifluoromethyl)-1H-pyrazol-1-yl]benzonitrile]
smartweed; [5]
  Plant response rating, Smartweed: 65
smartweed; [6]
  Plant response rating, Smartweed: 85
smartweed; [7]
  Plant response rating, Smartweed: 100
smartweed; [10]
  Plant response rating, Smartweed: 100
smartweed; [8]
  Plant response rating, Smartweed: 50

## N#Cc1cccc(Oc2ncc(Br)cn2)c1-n1cc(C(F)(F)F)cn1 [Compound 59, 3-[(5-bromo-2-pyrimidinyl)oxy]-2-[4-(trifluoromethyl)-1H-pyrazol-1-yl]benzonitrile]
smartweed; [6]
  Plant response rating, Smartweed: 80
smartweed; [7]
  Plant response rating, Smartweed: 100
smartweed; [10]
  Plant response rating, Smartweed: 100
smartweed; [8]
  Plant response rating, Smartweed: 55
